Literature values as cited in patent publication US9463189B2 (BPV Holdings, LLC, priority 2007, dated 2016).
Structures can show the parent of a compound that is named as a salt.

What was measured:
[1] = test system: genetically obese rodent model; conditions: Gary-Bobo, M. et al., Hepatology 2007; cited from earlier work
PPAR = conditions: shown in US2006/0167012A1 and US2006/0205736A1; cited from earlier work
[2] = test system: methionine- and choline-deficient diet model of NASH; conditions: Nagasawa T et al., Eur. J. Pharmacol. (2006); cited from earlier work

Cc1c(C(=O)NN2CCCCC2)nn(-c2ccc(Cl)cc2Cl)c1-c1ccc(Cl)cc1 [rimonabant]
outcome in genetically obese rodent model [1]: positive outcome

C[C@@H]1CN(c2ccc(OC(F)(F)F)cc2)C[C@H](C)N1S(=O)(=O)c1cccc2c1C[C@@H](C(=O)O)C2 [Compound 1, (S)-4-[cis-2,6-Dimethyl-4-(4-trifluoromethoxy-phenyl)-piperazine-1-sulfonyl]-indan-2-carboxylic acid tosylate]
PPAR modulator activity (PPAR): PPAR modulators

Cc1cc(SCc2sc(-c3ccc(C(F)(F)F)cc3)nc2C)ccc1OCC(=O)O [GW501516]
fatty acid β-oxidation [2]: increased | hepatic steatosis [2]: improved hepatic steatosis | hepatic triglyceride deposition [2]: decreased | inflammation [2]: decreased | inflammatory cytokines or chemokines [2]: decreased | number of activated hepatic stellate cells [2]: decreased
